In US20120270884A1, “Methods of Treating Aneurysmal Dilatation, Blood Vessel Wall Weakness and Specifically Abdominal Aortic and Thoracic Aneurysm Using Matrix Metalloprotease-2 Inhibitors” (SYMPHONY EVOLUTION, INC., priority 2009, published 2012) one finds IC50 data, which are given here for 29 molecules.

Common to all, as to assay type: biochemical
Test [1] addresses T1, MMP-1 (Fibroblast collagenase) (Homo sapiens, UniProt P03956).
T1 sequence (P03956 100-469): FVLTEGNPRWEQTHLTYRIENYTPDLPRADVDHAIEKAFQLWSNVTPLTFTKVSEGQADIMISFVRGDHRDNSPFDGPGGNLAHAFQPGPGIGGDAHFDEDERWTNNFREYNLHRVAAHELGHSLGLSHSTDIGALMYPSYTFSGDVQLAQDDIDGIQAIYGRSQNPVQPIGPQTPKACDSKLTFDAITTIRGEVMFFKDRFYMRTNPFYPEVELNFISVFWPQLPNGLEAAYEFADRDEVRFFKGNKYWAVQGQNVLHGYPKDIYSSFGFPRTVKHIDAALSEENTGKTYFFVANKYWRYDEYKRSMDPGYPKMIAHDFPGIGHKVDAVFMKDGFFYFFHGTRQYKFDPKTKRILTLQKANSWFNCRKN
In words: In vitro metalloprotease inhibition, MMP-1. From the text: (§1) Blank cells indicate lack of data only.

In test [2] the target is T2, MMP-2 (72 kDa gelatinase, gelatinase A) (Homo sapiens, UniProt P08253).
T2 sequence (P08253 110-660): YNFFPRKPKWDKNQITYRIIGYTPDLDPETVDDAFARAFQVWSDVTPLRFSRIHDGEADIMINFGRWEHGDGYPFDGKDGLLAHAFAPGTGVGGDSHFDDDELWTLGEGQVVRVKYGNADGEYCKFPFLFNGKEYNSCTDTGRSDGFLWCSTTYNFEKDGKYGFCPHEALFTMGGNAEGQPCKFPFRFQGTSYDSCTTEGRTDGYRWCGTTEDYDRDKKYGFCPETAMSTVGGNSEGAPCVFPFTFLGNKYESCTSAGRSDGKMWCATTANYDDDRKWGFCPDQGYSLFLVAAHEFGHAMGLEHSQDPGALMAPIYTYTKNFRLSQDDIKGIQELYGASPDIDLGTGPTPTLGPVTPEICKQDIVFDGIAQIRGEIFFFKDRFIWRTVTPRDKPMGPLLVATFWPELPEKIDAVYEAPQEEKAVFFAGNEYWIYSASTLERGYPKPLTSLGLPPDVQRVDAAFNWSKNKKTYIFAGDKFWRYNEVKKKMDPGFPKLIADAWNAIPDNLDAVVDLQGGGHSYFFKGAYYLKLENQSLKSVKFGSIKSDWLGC
In words: In vitro metalloprotease inhibition, MMP-2.

The target in a further test is MMP-13 (collagenase-3) (Homo sapiens, UniProt P45452). In words: In vitro metalloprotease inhibition, MMP-13.
Another test deals with MMP-3 (Stromelysin-1) (Homo sapiens, UniProt P08254). Kind of test: In vitro metalloprotease inhibition, MMP-3.
Chain of MMP-3 (Stromelysin-1) (P08254 100-477, species assumed): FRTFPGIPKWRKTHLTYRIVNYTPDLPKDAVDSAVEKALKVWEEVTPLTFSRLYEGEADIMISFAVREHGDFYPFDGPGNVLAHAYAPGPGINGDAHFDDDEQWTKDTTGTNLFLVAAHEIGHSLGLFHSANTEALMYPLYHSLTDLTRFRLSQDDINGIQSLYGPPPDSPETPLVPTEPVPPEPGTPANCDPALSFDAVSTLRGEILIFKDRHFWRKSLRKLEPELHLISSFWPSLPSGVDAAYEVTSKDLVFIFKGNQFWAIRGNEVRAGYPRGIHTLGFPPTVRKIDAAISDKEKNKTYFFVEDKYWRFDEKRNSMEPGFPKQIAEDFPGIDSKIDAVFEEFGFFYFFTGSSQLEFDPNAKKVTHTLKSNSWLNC
Text: as §1

`COCCN1CCN(S(=O)(=O)c2cc(F)c(Oc3ccc(Cl)cc3)c(F)c2)[C@@H](C(=O)NO)C1` [Entry 29]: the IC50 is 1000 to 20000 nM in test [1], less than 50 nM in test [2], less than 50 nM against MMP-13 (collagenase-3) and 50 to 1000 nM on MMP-3 (Stromelysin-1).
With `O=C(NO)[C@H]1CN(C(=O)OCc2ccccc2)CCN1S(=O)(=O)c1cc(F)c(Oc2ccc(Cl)cc2)c(F)c1` [Entry 32], the IC50 in test [1] is 1000 to 20000 nM; in test [2] it was less than 50 nM; on MMP-13 (collagenase-3) it was less than 50 nM; against MMP-3 (Stromelysin-1), 50 to 1000 nM.
`O=C(CCl)NC(=O)N1CCN(S(=O)(=O)c2cc(F)c(Oc3ccc(Cl)cc3)c(F)c2)[C@@H](C(=O)NO)C1` [Entry 33]: the IC50 in test [1] was 1000 to 20000 nM; in test [2], less than 50 nM; against MMP-13 (collagenase-3), less than 50 nM; at MMP-3 (Stromelysin-1), 50 to 1000 nM.
Regarding `O=C(NO)[C@H]1CN(C(=O)C(=O)N2CCCCC2)CCN1S(=O)(=O)c1cc(F)c(Oc2ccc(Cl)cc2)c(F)c1` [Entry 35], the IC50 was 1000 to 20000 nM in test [1], less than 50 nM in test [2], less than 50 nM against MMP-13 (collagenase-3) and 50 to 1000 nM on MMP-3 (Stromelysin-1).
As to `CN(C)S(=O)(=O)N1CCN(S(=O)(=O)c2cc(F)c(Oc3ccc(Cl)cc3)c(F)c2)[C@@H](C(=O)NO)C1` [Entry 36], the IC50 is 1000 to 20000 nM in test [1], less than 50 nM in test [2], less than 50 nM against MMP-13 (collagenase-3) and 50 to 1000 nM against MMP-3 (Stromelysin-1).
Take `CN1CCN(C(=O)NS(=O)(=O)N2CCN(S(=O)(=O)c3cc(F)c(Oc4ccc(Cl)cc4)c(F)c3)[C@@H](C(=O)NO)C2)CC1` [Entry 39]: the IC50 in test [1] was 50 to 1000 nM; in test [2], less than 50 nM; on MMP-13 (collagenase-3), less than 50 nM; against MMP-3 (Stromelysin-1), less than 50 nM.
With `COCCOC(=O)N1CCN(S(=O)(=O)c2cc(F)c(Oc3ccccc3)c(F)c2)[C@@H](C(=O)NO)C1` [Entry 40], the IC50 in test [1] was 1000 to 20000 nM; in test [2], less than 50 nM; against MMP-13 (collagenase-3), less than 50 nM; on MMP-3 (Stromelysin-1), 50 to 1000 nM.
Regarding `O=C(NO)[C@H]1CN(C(=O)c2ccncc2)CCN1S(=O)(=O)c1cc(F)c(Oc2ccc(Cl)cc2)c(F)c1` [Entry 42], the IC50 was 1000 to 20000 nM in test [1], less than 50 nM in test [2], less than 50 nM against MMP-13 (collagenase-3) and 1000 to 20000 nM against MMP-3 (Stromelysin-1).
As for `CCCCCCC(=O)N1CCN(S(=O)(=O)c2cc(F)c(Oc3ccc(Cl)cc3)c(F)c2)[C@@H](C(=O)NO)C1` [Entry 43], the IC50 in test [1] was more than 20000 nM; in test [2], less than 50 nM; at MMP-13 (collagenase-3), less than 50 nM; on MMP-3 (Stromelysin-1) it was 50 to 1000 nM.
Regarding `CCCC(CCC)C(=O)N1CCN(S(=O)(=O)c2cc(F)c(Oc3ccc(Cl)cc3)c(F)c2)[C@@H](C(=O)NO)C1` [Entry 44], the IC50 is more than 20000 nM in test [1], less than 50 nM in test [2], 50 to 1000 nM at MMP-13 (collagenase-3) and 1000 to 20000 nM at MMP-3 (Stromelysin-1).
With `O=C(CN1CCOCC1)NC(=O)N1CCN(S(=O)(=O)c2cc(F)c(Oc3ccc(Cl)cc3)c(F)c2)[C@@H](C(=O)NO)C1` [Entry 46], the IC50 in test [1] was 1000 to 20000 nM; in test [2], less than 50 nM; on MMP-13 (collagenase-3), less than 50 nM; on MMP-3 (Stromelysin-1), 50 to 1000 nM.
Take `O=C(NO)[C@H]1CN(C(=O)Cc2cccnc2)CCN1S(=O)(=O)c1cc(F)c(Oc2ccc(Cl)cc2)c(F)c1` [Entry 47]: the IC50 in test [1] was more than 20000 nM; in test [2] it was less than 50 nM; against MMP-13 (collagenase-3) it was less than 50 nM; on MMP-3 (Stromelysin-1), 50 to 1000 nM.
As to `O=C(NO)[C@H]1CN(S(=O)(=O)c2cccc3cnccc23)CCN1S(=O)(=O)c1cc(F)c(Oc2ccc(Cl)cc2)c(F)c1` [Entry 48], the IC50 was more than 20000 nM in test [1], less than 50 nM in test [2], less than 50 nM on MMP-13 (collagenase-3) and 50 to 1000 nM at MMP-3 (Stromelysin-1).
As to `CN(C)c1ccc2c(S(=O)(=O)N3CCN(S(=O)(=O)c4cc(F)c(Oc5ccc(Cl)cc5)c(F)c4)[C@@H](C(=O)NO)C3)cccc2c1` [Entry 49], the IC50 in test [1] was more than 20000 nM; in test [2], less than 50 nM; at MMP-13 (collagenase-3), less than 50 nM; at MMP-3 (Stromelysin-1), 50 to 1000 nM.
As for `CN(C)c1ccc2ccc(S(=O)(=O)N3CCN(S(=O)(=O)c4cc(F)c(Oc5ccc(Cl)cc5)c(F)c4)[C@@H](C(=O)NO)C3)cc2c1` [Entry 50], the IC50 is more than 20000 nM in test [1], more than 20000 nM in test [2], less than 50 nM against MMP-13 (collagenase-3) and 50 to 1000 nM at MMP-3 (Stromelysin-1).
Regarding `O=C(NO)[C@H]1CN(C(=O)c2ccc(-c3ccccc3)cc2)CCN1S(=O)(=O)c1cc(F)c(Oc2ccc(Cl)cc2)c(F)c1` [Entry 51], the IC50 in test [1] is 1000 to 20000 nM; in test [2] it was 50 to 1000 nM; on MMP-13 (collagenase-3) it was 50 to 1000 nM; on MMP-3 (Stromelysin-1) it was 1000 to 20000 nM.
In the case of `O=C(NO)[C@H]1CN(C(=O)Cc2ccncc2)CCN1S(=O)(=O)c1cc(F)c(Oc2ccc(Cl)cc2)c(F)c1` [Entry 52], the IC50 was 1000 to 20000 nM in test [1], less than 50 nM in test [2], less than 50 nM on MMP-13 (collagenase-3) and 1000 to 20000 nM at MMP-3 (Stromelysin-1).
On to `O=C(NO)[C@H]1CN(S(=O)(=O)CCN2CCCCC2)CCN1S(=O)(=O)c1cc(F)c(Oc2ccc(Cl)cc2)c(F)c1` [Entry 53], for which the IC50 in test [1] was 50 to 1000 nM; in test [2], less than 50 nM; at MMP-13 (collagenase-3), less than 50 nM; against MMP-3 (Stromelysin-1) it was 50 to 1000 nM.
Take `CN1CCN(CCS(=O)(=O)N2CCN(S(=O)(=O)c3cc(F)c(Oc4ccc(Cl)cc4)c(F)c3)[C@@H](C(=O)NO)C2)CC1` [Entry 55]: the IC50 is 1000 to 20000 nM in test [1], less than 50 nM in test [2], less than 50 nM at MMP-13 (collagenase-3) and 50 to 1000 nM against MMP-3 (Stromelysin-1).
With `CCOC(=O)N1CCN(CCS(=O)(=O)N2CCN(S(=O)(=O)c3cc(F)c(Oc4ccc(Cl)cc4)c(F)c3)[C@@H](C(=O)NO)C2)CC1` [Entry 56], the 50% inhibitory concentration (IC50) in test [1] was 1000 to 20000 nM; in test [2] it was less than 50 nM; against MMP-13 (collagenase-3), less than 50 nM; on MMP-3 (Stromelysin-1), 50 to 1000 nM.
On to `O=C(NO)[C@H]1CN(S(=O)(=O)CCN2CCOCC2)CCN1S(=O)(=O)c1cc(F)c(Oc2ccc(Cl)cc2)c(F)c1` [Entry 57], for which the IC50 was more than 20000 nM in test [1], 50 to 1000 nM in test [2], 50 to 1000 nM on MMP-13 (collagenase-3) and 1000 to 20000 nM against MMP-3 (Stromelysin-1).
With `O=C(NO)[C@H]1CN(C(=O)N2CCOCC2)CCN1S(=O)(=O)c1ccc(-c2cccc(F)c2)nc1` [Entry 58], the IC50 is 50 to 1000 nM in test [1], less than 50 nM in test [2], less than 50 nM on MMP-13 (collagenase-3) and 50 to 1000 nM against MMP-3 (Stromelysin-1).
In the case of `CN(C)c1cccc2c(S(=O)(=O)N3CCN(S(=O)(=O)c4cc(F)c(Oc5ccc(Cl)cc5)c(F)c4)[C@@H](C(=O)NO)C3)cccc12` [Entry 60], the concentration for half-maximal inhibition (IC50) in test [1] is more than 20000 nM; in test [2] it was less than 50 nM; on MMP-13 (collagenase-3) it was less than 50 nM; at MMP-3 (Stromelysin-1) it was 1000 to 20000 nM.
On to `O=C(NO)[C@H]1CN(S(=O)(=O)Cc2cc(Cl)cc(Cl)c2)CCN1S(=O)(=O)c1cc(F)c(Oc2ccc(Cl)cc2)c(F)c1` [Entry 61], for which the IC50 in test [1] was more than 20000 nM; in test [2], 1000 to 20000 nM; against MMP-13 (collagenase-3) it was 1000 to 20000 nM; on MMP-3 (Stromelysin-1), more than 20000 nM.
With `C=CCN1CCN(S(=O)(=O)c2cc(F)c(Oc3ccc(Cl)cc3)c(F)c2)[C@@H](C(=O)NO)C1` [Entry 62], the IC50 in test [1] is more than 20000 nM; in test [2] it was less than 50 nM; against MMP-13 (collagenase-3) it was less than 50 nM; against MMP-3 (Stromelysin-1), 1000 to 20000 nM.
As for `O=C(O)CN1CCN(S(=O)(=O)c2cc(F)c(Oc3ccc(Cl)cc3)c(F)c2)[C@@H](C(=O)NO)C1` [Entry 63], the IC50 in test [1] is more than 20000 nM; in test [2], 50 to 1000 nM; against MMP-13 (collagenase-3) it was 50 to 1000 nM; against MMP-3 (Stromelysin-1), 1000 to 20000 nM.
For `COCCOC(=O)N1CCN(S(=O)(=O)c2ccc(Oc3ccc4c(c3)CCCC4)nc2)[C@@H](C(=O)NO)C1` [Entry 64], the IC50 was 50 to 1000 nM in test [1], less than 50 nM in test [2], less than 50 nM at MMP-13 (collagenase-3) and less than 50 nM against MMP-3 (Stromelysin-1).
For the molecule `COCCOC(=O)N1CCN(S(=O)(=O)c2ccc(Oc3ccc(F)cc3)nc2)[C@@H](C(=O)NO)C1` [Entry 65], the IC50 (in test [1]; in test [2]; against MMP-13 (collagenase-3); against MMP-3 (Stromelysin-1)) was less than 50 nM in each case.
With `COCCOC(=O)N1CCN(S(=O)(=O)c2ccc(-c3cccc(F)c3)nc2)[C@@H](C(=O)NO)C1` [Entry 66], the IC50 is 50 to 1000 nM in test [1], less than 50 nM in test [2], less than 50 nM at MMP-13 (collagenase-3) and less than 50 nM on MMP-3 (Stromelysin-1).
